Reference: US12502398B2, “Combination therapy for treating cancer” (AstraZeneca AB, priority 2019, dated 2025)

Assays:
[1] = tested on: Mouse MC38 colorectal cancer cells expressing OVA antigen; assay: MC38-OVA syngeneic tumor model, tumor volume; format: in vivo; settings: COMPOUND 12 30 mg/kg orally twice per day, Anti-PDL1 10 mg/kg ip twice per week
Procedure: (§1) Mouse MC38 colorectal cancer cells expressing OVA antigen (5×10^5 cells/mouse), were subcutaneously implanted in the right flank of 6 to 8 weeks old female C57BL/6 mice. On day 6 post transplant, groups of mice were treated with vehicle (water), 30 mg/kg COMPOUND 12, 10 mg/kg Anti-PDL1 (MEDI4736), or the combination. COMPOUND 12 was formulated in water and dosed orally twice per day. MEDI4736 was formulated in 1×PBS and dosed intraperitoneally twice per week for 2 weeks. Tumor length and width was measured by caliper and tumor volume was calculated using the formula (length×width^2)*π/6 then reported as tumor volume as calculated.

[2] = tested on: Mouse CT.26 WT colorectal cancer cells; assay: CT.26 WT syngeneic tumor model, tumor volume; format: in vivo; settings: COMPOUND 12 30 mg/kg orally twice per day, Anti-PDL1 10 mg/kg ip twice per week
Procedure: as §1, with “CT.26 WT” for “MC38”, “cells” for “cells expressing OVA antigen”, “Balb/C” for “C57BL/6”, “implant,” for “transplant,”, “combination. Additional groups were treated with 10 mg/kg Anti-NKG2A (monalizumab), in combination with either COMPOUND 12 or MEDI4736, or a triplicate of COMPOUND 12, monalizumab and MEDI4736.” for “combination.”, “weeks. Monalizumab was formulated in 1×PBS and dosed intravenously twice per week for 1.5 weeks (3 doses).” for “weeks.”

[3] = tested on: Mouse Lewis lung (LL/2) carcinoma cells; assay: LL/2 syngeneic tumor model with TLR3 agonist, tumor volume; format: in vivo; settings: Poly I:C 7.5 mg/kg ip 3x/week; for efficacy / monotherapy activity (in words): COMPOUND 12 30 mg/kg po BID
Procedure: Mouse Lewis lung (LL/2) carcinoma cells (1×10^6 cells/mouse), were subcutaneously implanted in the right flank of 6 to 8 weeks old C57BL/6 mice. On day 6 post implant, groups of mice were treated with vehicle (water), 30 mg/kg COMPOUND 12, 7.5 mg/kg TLR3 agonist (Poly I:C), or the combination. COMPOUND 12 was formulated in water and dosed orally twice per day. Poly I:C was formulated in water and dosed intraperitoneally 3×/week. Tumor length and width was measured by caliper and tumor volume was calculated using the formula (length×width^2)*π/6 then reported as tumor volume as calculated.

MC38-OVA model = assay: In vivo PD study of immune cell changes in MC38-OVA model (flow cytometry); parameters: species or system mouse; settings: draining lymph node
Procedure: For monitoring immune cell changes tumors were harvested either four, ten or fourteen days post treatment. Tumors were excised and mechanically minced. Tumors were then incubated with tumor dissociation enzyme mix (Miltenyi Biotec) at 37° C. for 40 min in gentle MACS instrument (Miltenyi biotec). Single cell suspension were made and stained for a variety of immune cell markers to determine the immune cell changes post treatment using multicolor flow cytometry. Furthermore, the functional response of CD8+ cytotoxic T cells was evaluated by ex vivo restimulation with phorbol 12-myristate-13-acetate (PMA) and ionomycin prior to analysis.

[4] = tested on: LL/2 murine lung carcinoma cells; assay: LL/2 syngeneic lung tumor model with radio therapy; format: in vivo, mouse; settings: COMPOUND 12 30 mg/kg twice daily, radiation 5 gray on days 6 and 9 after implant
Procedure: Six-eight week old BL/6 mice (Charles River Labs) were implanted with 1e6 LL/2 murine lung carcinoma cells subcutaneously on the right flank. At 6 days post implant, animals were randomized by mean cage tumor volume into four groups (n=12/ group). Group 1 was anesthetized for mock irradiation on days 6 and 9, and dosed with vehicle (water) PO, BID starting on day 6. Group 2 was anesthetized and given 5 Gy of radiation targeted to the tumor on days 6 and 9. Group 3 was administered AZ8400 at 30 mg/kg PO bid starting on Day 6, and Group 4 was administered AZ8400 at 30 mg/kg starting on Day 6, and anesthetized and irradiated on days 6 and 9. Body weight and tumor volume were measured twice weekly until tumors were >1500 mm3, at which point mice were humanely sacrificed

Compound	efficacy (in words) [1]	efficacy (in words) [2]	efficacy / monotherapy activity (in words) [3]	IFNg producing CD8+ T cells in the periphery (draining LN) (MC38-OVA model)	TNFa producing CD8+ T cells in the periphery (draining LN) (MC38-OVA model)	tumor growth inhibition [4]	TGI on day 16 ([3]; day 16)
CC(C)[C@H](N)C(=O)N[C@H]1CN[C@@](CCCCB(O)O)(C(=O)O)C1 [COMPOUND 12, (2R,4R)-4-((S)-2-amino-3-methylbutanamido)-2-(4-boronobutyl)pyrrolidine-2-carboxylic acid]	modestly efficacious	modestly efficacious	modestly efficacious	increase	increase	about 30%	–
Anti-PDL1: MEDI4736, also known as durvalumab, an anti-PD-L1 antibody [reference compound]	modest efficacy	modest efficacy	–	–	–	–	–
polyinosinic:polycytidylic acid [Poly I:C]	–	–	moderate monotherapy activity	–	–	–	76%
